Experiments:
[1] = Stability assay in rat liver microsomes; type: in vitro ADME; conditions: for microsomal CLint at 2 h, 10 µM: pH 7.4; for Metabolic stability, % after 30 min incubation / less stable than (R)- and (S)-11b, (R)- and (S)-11c, and 2: rat microsomes; for Metabolic stability, % after 30 min incubation: 10 μM, parent remaining; for less stable than (R)- and (S)-11b, (R)- and (S)-11c, and 2: recovery after 30 min
[2] = test system: rat primary microglial cells; assay: Nitric oxide; type: cell-based
[3] = test system: rat primary microglial cells; assay: LDH release assay in rat primary microglial cells
caspase-3 = assay: Caspase-3 activity in rat primary microglial cells; type: cell-based; conditions: 0.1 μM, LPS 100 ng/mL 24 h
murine N9 cells = assay: ELISA of TNF-α and IL-1β in N9 cells, resting and LPS-stimulated; type: cell-based, mouse; conditions: for release of IL-1β and TNF-α under resting conditions: 0.5 to 5 μM; for effect on LPS-induced cytokines (IL-1β, TNF-α) production: LPS 100 ng/mL 24 h
[4] = test system: mouse microglial N9 cells; assay: Cytotoxicity, MTT assay in N9 cells; type: cell-based
human FPR2 = biological target: T1, human FPR2 (Homo sapiens, UniProt P25090); assay: Ca2+ mobilization; conditions: for increase in FPR2 potency as compared to 2: ratio of EC50 values
T1 sequence (P25090 1-351): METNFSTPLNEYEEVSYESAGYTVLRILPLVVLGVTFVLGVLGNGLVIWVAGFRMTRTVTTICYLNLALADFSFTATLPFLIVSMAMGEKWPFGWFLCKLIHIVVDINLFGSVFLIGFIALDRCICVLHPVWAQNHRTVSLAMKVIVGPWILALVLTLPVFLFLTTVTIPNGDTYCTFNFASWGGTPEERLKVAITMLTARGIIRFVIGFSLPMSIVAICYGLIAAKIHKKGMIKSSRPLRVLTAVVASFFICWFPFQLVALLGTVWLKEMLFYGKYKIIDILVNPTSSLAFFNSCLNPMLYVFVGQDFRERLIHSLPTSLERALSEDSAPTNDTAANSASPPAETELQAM

[5] = rat, rat liver microsomes, pH 7.4, half-life

| Compound | microsomal CLint at 2 h, 10 µM ([1]; rat, rat liver microsomes) | less stable than (R)- and (S)-11b, (R)- and (S)-11c, and 2 [1] | cytotoxic effect in the MTT test [4] | other results |
| --- | --- | --- | --- | --- |
| N#Cc1ccc(C[C@H](NC(=O)Nc2ccc(F)cc2)C(=O)N2Cc3ccc(F)cc3C2)cc1 [(S)-11j, (S)-1-(3-(4-Cyanophenyl)-1-(5-fluoroisoindolin-2-yl)-1-oxopropan-2-yl)-3-(4-fluorophenyl)urea] | 4.1 µL/min/mg | – | – | – |
| N#Cc1ccc(C[C@@H](NC(=O)Nc2ccc(F)cc2)C(=O)N2CCc3cc(F)ccc32)cc1 [(R)-11i, (R)-1-(3-(4-Cyanophenyl)-1-(5-fluoroindolin-1-yl)-1-oxopropan-2-yl)-3-(4-fluorophenyl)urea] | 6.4 µL/min/mg | – | – | Metabolic stability, % after 30 min incubation [1]: 58%; half-life at 10 μM [1, 5]: 1.8 h |
| N#Cc1ccc(C[C@H](NC(=O)Nc2ccc(F)cc2)C(=O)N2CCc3ccccc32)cc1 [(S)-11e, (S)-1-(3-(4-Cyanophenyl)-1-(indolin-1-yl)-1-oxopropan-2-yl)-3-(4-fluorophenyl)urea] | 33 µL/min/mg | 2–3 fold | – | half-life at 2 h, 10 µM [1, 5]: 0.35 h; effect on LPS-induced NO production ([2]; 0.1 μM, LPS 100 ng/mL 24 h): effectively blocked; effect on NO production under resting conditions ([2]; rat primary microglial cells): did not induce any effect; effect on LPS-induced cell death (LDH release) ([3]; 0.1 μM, LPS 100 ng/mL 24 h): effectively blocked LPS-induced cell death; effect on cell viability (LDH) under resting conditions ([3]; rat primary microglial cells): did not induce any effect; effect on LPS-induced activation of caspase-3 (caspase-3): significantly reduced this activation; release of IL-1β and TNF-α under resting conditions (murine N9 cells): did not induce the release; effect on LPS-induced cytokines (IL-1β, TNF-α) production (murine N9 cells): effectively decrease LPS-induced cytokines production |
| N#Cc1ccc(C[C@H](NC(=O)Nc2ccc(F)cc2)C(=O)N2Cc3ccccc3C2)cc1 [(S)-11d, (S)-1-(3-(4-Cyanophenyl)-1-(isoindolin-2-yl)-1-oxopropan-2-yl)-3-(4-fluorophenyl)urea] | 24.7 µL/min/mg | 2–3 fold | – | half-life at 2 h, 10 µM [1, 5]: 0.467 h |
| N#Cc1ccc(C[C@@H](NC(=O)Nc2ccc(F)cc2)C(=O)N2Cc3ccccc3C2)cc1 [(R)-11d, (R)-1-(3-(4-Cyanophenyl)-1-(isoindolin-2-yl)-1-oxopropan-2-yl)-3-(4-fluorophenyl)urea] | – | 2–3 fold | – | – |
| N#Cc1ccc(C[C@H](NC(=O)Nc2ccc(F)cc2)C(=O)N2CCCc3ccccc32)cc1 [(S)-11g, (S)-1-(3-(4-Cyanophenyl)-1-(3,4-dihydroquinolin-1(2H)-yl)-1-oxopropan-2-yl)-3-(4-fluorophenyl)urea] | – | 2–3 fold | – | – |
| N#Cc1ccc(C[C@@H](NC(=O)Nc2ccc(F)cc2)C(=O)N2CCc3ccccc32)cc1 [(R)-11e, (R)-1-(3-(4-Cyanophenyl)-1-(indolin-1-yl)-1-oxopropan-2-yl)-3-(4-fluorophenyl)urea] | – | 2–3 fold | – | – |
| N#Cc1ccc(C[C@@H](NC(=O)Nc2ccc(F)cc2)C(=O)N2CCc3ccccc3C2)cc1 [(R)-11f, (R)-1-(3-(4-Cyanophenyl)-1-(3,4-dihydroisoquinolin-2(1H)-yl)-1oxopropan-2-yl)-3-(4-fluorophenyl)urea] | – | 2–3 fold | – | – |
| N#Cc1ccc(C[C@H](NC(=O)Nc2ccc(F)cc2)C(=O)N2CCCC2)cc1 [(S)-11c, (S)-1-(3-(4-Cyanophenyl)-1-oxo-1-(pyrrolidin-1-yl)propan-2-yl)-3-(4-fluorophenyl)urea] | 6.2 µL/min/mg | – | did not exert any cytotoxic effects | Metabolic stability, % after 30 min incubation [1]: 65%; increase in FPR2 potency as compared to 2 (human FPR2): equipotent |
| N#Cc1ccc(C[C@@H](NC(=O)Nc2ccc(F)cc2)C(=O)N2CCCc3ccccc32)cc1 [(R)-11g, (R)-1-(3-(4-Cyanophenyl)-1-(3,4-dihydroquinolin-1(2H)-yl)-1-oxopropan-2-yl)-3-(4-fluorophenyl)urea] | – | 2–3 fold | – | – |
| N#Cc1ccc(C[C@@H](NC(=O)Nc2ccc(F)cc2)C(=O)N2CCCC2)cc1 [(R)-11c, (R)-1-(3-(4-Cyanophenyl)-1-oxo-1-(pyrrolidin-1-yl)propan-2-yl)-3-(4-fluorophenyl)urea] | – | – | did not exert any cytotoxic effects | – |
| N#Cc1ccc(C[C@H](NC(=O)Nc2ccc(F)cc2)C(=O)N2CCCCC2)cc1 [(S)-11b, (S)-1-(3-(4-Cyanophenyl)-1-oxo-1-(piperidin-1-yl)propan-2-yl)-3-(4-fluorophenyl)urea] | 13.9 µL/min/mg | – | did not exert any cytotoxic effects | Metabolic stability, % after 30 min incubation [1]: 34%; increase in FPR2 potency as compared to 2 (human FPR2): 4 fold |
| N#Cc1ccc(C[C@@H](NC(=O)Nc2ccc(F)cc2)C(=O)N2CCc3ccc(F)cc32)cc1 [(R)-11l, (R)-1-(3-(4-Cyanophenyl)-1-(6-fluoroindolin-1-yl)-1-oxopropan-2-yl)-3-(4-fluorophenyl)urea] | 23.3 µL/min/mg | – | – | half-life at 2 h, 10 µM [1, 5]: 0.5 h |
| N#Cc1ccc(C[C@@H](NC(=O)Nc2ccc(F)cc2)C(=O)N2CCCCC2)cc1 [(R)-11b, (R)-1-(3-(4-Cyanophenyl)-1-oxo-1-(piperidin-1-yl)propan-2-yl)-3-(4-fluorophenyl)urea] | – | – | did not exert any cytotoxic effects | – |
| N#Cc1ccc(C[C@H](NC(=O)Nc2ccc(F)cc2)C(=O)NC2CCCCNC2=O)cc1 (stereo partly drawn) [(S)-11a, (2S)-3-(4-Cyanophenyl)-2-(3-(4-fluorophenyl)ureido)-N-(2-oxoazepan-3-yl)propenamide] | 4.4 µL/min/mg | – | did not exert any cytotoxic effects | half-life at 2 h, 10 µM [1, 5]: 2.62 h; increase in FPR2 potency as compared to 2 (human FPR2): 20 fold; release of IL-1β and TNF-α under resting conditions (murine N9 cells): did not induce the release; effect on LPS-induced cytokines (IL-1β, TNF-α) production (murine N9 cells): effectively decrease LPS-induced cytokines production |
| N#Cc1ccc(C[C@H](NC(=O)Nc2ccc(F)cc2)C(=O)N2CCC(F)(F)CC2)cc1 [(S)-11h, (S)-1-(3-(4-Cyanophenyl)-1-(4,4-difluoropiperidin-1-yl)-1-oxopropan-2-yl)-3-(4-fluorophenyl)urea] | – | – | did not exert any cytotoxic effects | loss of FPR2 potency versus the non-substituted counterpart (human FPR2; 11h vs 11b): 20 fold |
| N#Cc1ccc(C[C@@H](NC(=O)Nc2ccc(F)cc2)C(=O)NC2CCCCNC2=O)cc1 (stereo partly drawn) [(R)-11a, (2R)-3-(4-Cyanophenyl)-2-(3-(4-fluorophenyl)ureido)-N-(2-oxoazepan-3-yl)propenamide] | 5.5 µL/min/mg | – | did not exert any cytotoxic effects | half-life at 2 h, 10 µM [1, 5]: 2 h |

— paper PMC9942528 (Journal of medicinal chemistry, 2022)
